Laboratory results: patent US20240199535A1, “DEUTERATED DHODH INHIBITORS” (priority 2021, published 2024)

Legend:
[1] = in vivo; details: CC7BL/6J, mouse, po, 5 mg/kg
Protocol: The pharmacokinetics of the compounds of the present invention was evaluated in 3 male and 3 female mice (CC7BL/6J, 8 week old) after oral cassette dosing. Dose was 5 mg/kg, application volume was 5 mL/kg and vehicle was 5% Solutol, 95% NaCl solution (at 0.9% saline concentration). At each designated time point (0, 0.25, 0.5, 1, 2, 4, 8 h after dosing), 20 μL whole blood were collected from the tail vein into Li-heparin tubes, frozen on dry ice within 1-2 minutes of sampling and stored at −20° C. until processed for LC-MS analysis.

[2] = in vivo; details: Han Wistar, rat
Protocol: Rats are provided with a catheter in the jugular vein (2-3 days prior to blood sampling). At each designated time point (0, 1, 2, 4, 8 and 24 h after dosing), 100 μL blood were collected into Li-heparin tubes, stored on ice until centrifugation (10 minutes at 3000 g, 4° C.) and plasma was prepared within 45 min after collection, frozen at −20° C. and stored at this temperature until processed for LC-MS analysis.

[3] = in vitro; details: human, microsomes
[4] = in vitro; details: male, rat, microsomes
[5] = test system: SARS-CoV-2; experiment: Antiviral activity on SARS-CoV-2, viral replication (YFP) assay; assay type: cell-based; details: Severe acute respiratory syndrome coronavirus 2, read-out: EC50 range
[6] = test system: SARS-CoV-2 d6-YFP; experiment: Combinatorial drug assessment with EIDD-1931, viral replication inhibition assay; assay type: cell-based

Structure (SMILES): [2H]C([2H])([2H])Oc1cccc(-c2ccc(NC(=O)C3=C(C(=O)O)CCC3)c(F)c2)c1 [Example 1, 2-((3-Fluoro-3′-(methoxy-d3)-[1,1′-biphenyl]-4-yl)carbamoyl)cyclopent-1-ene-1-carboxylic Acid]
- AUC ([1]; female): 5740 ng·h/mL
- Cmax ([1]; female): 3440 ng/mL
- half-life ([1]; female): 96 min
- AUC ([1]; male): 5110 ng·h/mL
- Cmax ([1]; male): 4110 ng/mL
- half-life ([1]; male): 102 min
- % AUCextra ([2]; female, iv, 1 mg/kg): 13%
- AUC(0-inf) ([2]; female, iv, 1 mg/kg): 80.7 µg·h/mL
- AUC(0-t) ([2]; female, iv, 1 mg/kg): 66.2 µg·h/mL
- C0 ([2]; female, iv, 1 mg/kg): 7010 ng/mL
- Cz ([2]; female, iv, 1 mg/kg): 943 ng/mL
- Vz/f ([2]; female, iv, 1 mg/kg): 17 mL/kg
- t1/2z ([2]; female, iv, 1 mg/kg): 9.9 h
- tz ([2]; female, iv, 1 mg/kg): 24 h
- bioavailability ([2]; female, po): 75.3%
- % AUCextra ([2]; female, po, 5 mg/kg): 17%
- AUC(0-inf) ([2]; female, po, 5 mg/kg): 291 µg·h/mL
- AUC(0-t) ([2]; female, po, 5 mg/kg): 249 µg·h/mL
- CL/F ([2]; female, po, 5 mg/kg): 3.77 mL/min/kg
- Cmax ([2]; female, po, 5 mg/kg): 19700 ng/mL
- Cz ([2]; female, po, 5 mg/kg): 3536 ng/mL
- Tmax ([2]; female, po, 5 mg/kg): 2 h
- Vd/F ([2]; female, po, 5 mg/kg): 0.016 L/kg
- t1/2z ([2]; female, po, 5 mg/kg): 9.1 h
- tz ([2]; female, po, 5 mg/kg): 24 h
- % AUCextra ([2]; male, iv, 1 mg/kg): 22%
- AUC(0-inf) ([2]; male, iv, 1 mg/kg): 47.9 µg·h/mL
- AUC(0-t) ([2]; male, iv, 1 mg/kg): 42.6 µg·h/mL
- C0 ([2]; male, iv, 1 mg/kg): 5540 ng/mL
- Cz ([2]; male, iv, 1 mg/kg): 437 ng/mL
- Vz/f ([2]; male, iv, 1 mg/kg): 10 mL/kg
- t1/2z ([2]; male, iv, 1 mg/kg): 7.9 h
- tz ([2]; male, iv, 1 mg/kg): 24 h
- bioavailability ([2]; male, po): 86%
- % AUCextra ([2]; male, po, 5 mg/kg): 24%
- AUC(0-inf) ([2]; male, po, 5 mg/kg): 210 µg·h/mL
- AUC(0-t) ([2]; male, po, 5 mg/kg): 183 µg·h/mL
- CL/F ([2]; male, po, 5 mg/kg): 3.82 mL/min/kg
- Cmax ([2]; male, po, 5 mg/kg): 14600 ng/mL
- Cz ([2]; male, po, 5 mg/kg): 1525 ng/mL
- Tmax ([2]; male, po, 5 mg/kg): 2 h
- Vd/F ([2]; male, po, 5 mg/kg): 0.008 L/kg
- t1/2z ([2]; male, po, 5 mg/kg): 6.6 h
- tz ([2]; male, po, 5 mg/kg): 24 h
- microsomal CLint ([3]; both): 0.96 µL/min/mg
- microsomal CLint ([3]; female): 5.02 µL/min/mg
- microsomal CLint ([3]; male): 7.69 µL/min/mg
- microsomal CLint [4]: 13.4 µL/min/mg

Structure (SMILES): [2H]c1cc([2H])c(-c2ccc(NC(=O)C3=C(C(=O)O)CCC3)c(F)c2)c([2H])c1OC([2H])([2H])[2H] [Example 2, 2-((3-Fluoro-3′-(methoxy-d3)-[1,1′-biphenyl]-4-yl-2′,4′,6′-d3)carbamoyl)cyclopent-1-ene-1-carboxylic Acid]
- % AUCextra ([2]; female, iv, 1 mg/kg): 13%
- AUC(0-inf) ([2]; female, iv, 1 mg/kg): 79.1 µg·h/mL
- AUC(0-t) ([2]; female, iv, 1 mg/kg): 64.7 µg·h/mL
- C0 ([2]; female, iv, 1 mg/kg): 7980 ng/mL
- Cz ([2]; female, iv, 1 mg/kg): 915 ng/mL
- Vz/f ([2]; female, iv, 1 mg/kg): 17 mL/kg
- t1/2z ([2]; female, iv, 1 mg/kg): 10.0 h
- tz ([2]; female, iv, 1 mg/kg): 24 h
- bioavailability ([2]; female, po): 83.1%
- % AUCextra ([2]; female, po, 5 mg/kg): 16%
- AUC(0-inf) ([2]; female, po, 5 mg/kg): 320 µg·h/mL
- AUC(0-t) ([2]; female, po, 5 mg/kg): 269 µg·h/mL
- CL/F ([2]; female, po, 5 mg/kg): 3.5 mL/min/kg
- Cmax ([2]; female, po, 5 mg/kg): 21300 ng/mL
- Cz ([2]; female, po, 5 mg/kg): 3892 ng/mL
- Tmax ([2]; female, po, 5 mg/kg): 2 h
- Vd/F ([2]; female, po, 5 mg/kg): 0.017 L/kg
- t1/2z ([2]; female, po, 5 mg/kg): 9.3 h
- tz ([2]; female, po, 5 mg/kg): 24 h
- % AUCextra ([2]; male, iv, 1 mg/kg): 23%
- AUC(0-inf) ([2]; male, iv, 1 mg/kg): 45.2 µg·h/mL
- AUC(0-t) ([2]; male, iv, 1 mg/kg): 40.4 µg·h/mL
- C0 ([2]; male, iv, 1 mg/kg): 5310 ng/mL
- Cz ([2]; male, iv, 1 mg/kg): 422 ng/mL
- Vz/f ([2]; male, iv, 1 mg/kg): 10 mL/kg
- t1/2z ([2]; male, iv, 1 mg/kg): 7.6 h
- tz ([2]; male, iv, 1 mg/kg): 24 h
- bioavailability ([2]; male, po): 100%
- % AUCextra ([2]; male, po, 5 mg/kg): 22%
- AUC(0-inf) ([2]; male, po, 5 mg/kg): 233 µg·h/mL
- AUC(0-t) ([2]; male, po, 5 mg/kg): 202 µg·h/mL
- CL/F ([2]; male, po, 5 mg/kg): 3.43 mL/min/kg
- Cmax ([2]; male, po, 5 mg/kg): 16000 ng/mL
- Cz ([2]; male, po, 5 mg/kg): 1657 ng/mL
- Tmax ([2]; male, po, 5 mg/kg): 2 h
- Vd/F ([2]; male, po, 5 mg/kg): 0.008 L/kg
- t1/2z ([2]; male, po, 5 mg/kg): 6.6 h
- tz ([2]; male, po, 5 mg/kg): 24 h
- microsomal CLint ([3]; both): 0.74 µL/min/mg
- microsomal CLint ([3]; female): 5.8 µL/min/mg
- microsomal CLint ([3]; male): 7.67 µL/min/mg

Structure (SMILES): [2H]c1cc([2H])c(-c2c(F)c(F)c(NC(=O)C3=C(C(=O)O)CCC3)c(F)c2F)c([2H])c1OC(F)(F)F [Example 3, 2-((2,3,5,6-Tetrafluoro-3′-(trifluoromethoxy)-[1,1′-biphenyl]-4-yl-2′,4′,6′-d3)carbamoyl)cyclopent-1-ene-1-carboxylic Acid]
- EC50 [5]: < 10 µM

Structure (SMILES): [2H]c1cc([2H])c(-c2ccc(NC(=O)C3=C(C(=O)O)CCC3)c(F)c2)c([2H])c1O [Example 8, 2-((3-Fluoro-3′-hydroxy-[1,1′-biphenyl]-4-yl-2′,4′,6′-d3)carbamoyl)cyclopent-1-ene-1-carboxylic Acid]
- EC50 [5]: 25 to 50 µM

Structure (SMILES): [2H]C([2H])([2H])Oc1cccc(-c2cc(F)c(NC(=O)C3=C(C(=O)O)CCC3)c(F)c2)c1 [Example 9, 2-((3,5-Difluoro-3′-(methoxy-d3)-[1,1′-biphenyl]-4-yl)carbamoyl)cyclopent-1-ene-1-carboxylic Acid]
- antiviral effect on SARS-CoV-2 in combination with nucleoside analogue EIDD-1931 [6]: synergistic antiviral effects
- EC50 [5]: 10 to 25 µM

Structure (SMILES): [2H]C([2H])([2H])Oc1cccc(-c2cc(F)c(NC(=O)C3=C(C(=O)O)CSC3)c(F)c2)c1 [Example 10, 4-((3,5-Difluoro-3′-(methoxy-d3)-[1,1′-biphenyl]-4-yl)carbamoyl)-2,5-dihydro-thiophene-3-carboxylic Acid]
- EC50 [5]: 10 to 25 µM

Structure (SMILES): [2H]C([2H])([2H])Oc1cccc(-c2cc(F)c(NC(=O)C3=C(C(=O)O)COC3)c(F)c2)c1 [Example 11, 4-((3,5-Difluoro-3′-(methoxy-d3)-[1,1′-biphenyl]-4-yl)carbamoyl)-2,5-dihydrofuran-3-carboxylic Acid]
- EC50 [5]: > 50 µM

Structure (SMILES): [2H]C([2H])([2H])Oc1cccc(-c2cnc(NC(=O)C3=C(C(=O)O)CCC3)c(F)c2)c1 [Example 12, 2-((3-Fluoro-5-(3-(methoxy-d3)phenyl)pyridin-2-yl)carbamoyl)cyclopent-1-ene-1-carboxylic Acid]
- EC50 [5]: < 10 µM

Structure (SMILES): [2H]C([2H])([2H])Oc1cccc(-c2ccc(NC(=O)C3=C(C(=O)O)CCC3)c3c2CCC3)c1 [Example 12/1]
- EC50 [5]: < 10 µM

Structure (SMILES): COc1cccc(-c2ccc(NC(=O)C3=C(C(=O)O)CCC3)c(F)c2)c1 [Example C26, vidofludimus, reference compound]
- AUC ([1]; female): 1970 ng·h/mL
- Cmax ([1]; female): 745 ng/mL
- half-life ([1]; female): 102 min
- AUC ([1]; male): 1620 ng·h/mL
- Cmax ([1]; male): 789 ng/mL
- half-life ([1]; male): 102 min
- % AUCextra ([2]; female, iv, 1 mg/kg): 12%
- AUC(0-inf) ([2]; female, iv, 1 mg/kg): 82.9 µg·h/mL
- AUC(0-t) ([2]; female, iv, 1 mg/kg): 68.6 µg·h/mL
- C0 ([2]; female, iv, 1 mg/kg): 8130 ng/mL
- Cz ([2]; female, iv, 1 mg/kg): 939 ng/mL
- Vz/f ([2]; female, iv, 1 mg/kg): 16 mL/kg
- t1/2z ([2]; female, iv, 1 mg/kg): 9.7 h
- tz ([2]; female, iv, 1 mg/kg): 24 h
- bioavailability ([2]; female, po): 73.8%
- % AUCextra ([2]; female, po, 5 mg/kg): 17%
- AUC(0-inf) ([2]; female, po, 5 mg/kg): 297 µg·h/mL
- AUC(0-t) ([2]; female, po, 5 mg/kg): 253 µg·h/mL
- CL/F ([2]; female, po, 5 mg/kg): 3.7 mL/min/kg
- Cmax ([2]; female, po, 5 mg/kg): 21300 ng/mL
- Cz ([2]; female, po, 5 mg/kg): 3620 ng/mL
- Tmax ([2]; female, po, 5 mg/kg): 2 h
- Vd/F ([2]; female, po, 5 mg/kg): 0.016 L/kg
- t1/2z ([2]; female, po, 5 mg/kg): 9.1 h
- tz ([2]; female, po, 5 mg/kg): 24 h
- % AUCextra ([2]; male, iv, 1 mg/kg): 22%
- AUC(0-inf) ([2]; male, iv, 1 mg/kg): 47.9 µg·h/mL
- AUC(0-t) ([2]; male, iv, 1 mg/kg): 43.2 µg·h/mL
- C0 ([2]; male, iv, 1 mg/kg): 5790 ng/mL
- Cz ([2]; male, iv, 1 mg/kg): 421 ng/mL
- Vz/f ([2]; male, iv, 1 mg/kg): 9 mL/kg
- t1/2z ([2]; male, iv, 1 mg/kg): 7.3 h
- tz ([2]; male, iv, 1 mg/kg): 24 h
- bioavailability ([2]; male, po): 92.7%
- % AUCextra ([2]; male, po, 5 mg/kg): 25%
- AUC(0-inf) ([2]; male, po, 5 mg/kg): 206 µg·h/mL
- AUC(0-t) ([2]; male, po, 5 mg/kg): 200 µg·h/mL
- CL/F ([2]; male, po, 5 mg/kg): 3.72 mL/min/kg
- Cmax ([2]; male, po, 5 mg/kg): 14900 ng/mL
- Cz ([2]; male, po, 5 mg/kg): 1540 ng/mL
- Tmax ([2]; male, po, 5 mg/kg): 2 h
- Vd/F ([2]; male, po, 5 mg/kg): 0.007 L/kg
- t1/2z ([2]; male, po, 5 mg/kg): 6.4 h
- tz ([2]; male, po, 5 mg/kg): 24 h
- microsomal CLint ([3]; both): 2.27 µL/min/mg
- microsomal CLint ([3]; female): 6.58 µL/min/mg
- microsomal CLint ([3]; male): 12.6 µL/min/mg
- microsomal CLint [4]: 8.48 µL/min/mg
